These are literature values, as cited in patent US20060013862A1, “Onychomycosis: a new process for cure” (priority 2004, published 2006).

The subject of the data set is onychomycosis.
The mark [1] stands for this setting: itraconazole vs terbinafine-treated patients.

In the case of `CN(C/C=C/C#CC(C)(C)C)Cc1cccc2ccccc12` [terbinafine], under setting [1], the Mycological relapse rate is 23% and the clinical relapse rate is 21%. Besides, the “Mycological cure without second intervention treatment” value (share of treated subjects (34 of 74 terbinafine)) was 46%.
